Earlier results in US8137579B2, “Non-aqueous heat transfer fluid and use thereof” (priority 1993, dated 2012).
Like-named read-outs stand apart in the source and are kept apart here.

What was measured:
[1] = laboratory rats, single dose, acute oral

Structure (SMILES) | LD50 rating (laboratory rats; [1]) [mg/kg] | toxic level to humans, reported as low as (humans) [g/kg] | LD50 rating (laboratory rats; rat, in vivo, po) [mg/kg]
OCCOCCO [Diethylene glycol] | 16600 |  | 
OCCO [EG, ethylene glycol] | 6100 | 0.398 | 
CC(O)CO (stereo not drawn) [PG, propylene glycol] | 33700 |  | 
OCCOCCOCCO [triethylene glycol] |  |  | 22000
CC(O)COC(C)COC(C)CO (stereo not drawn) [tripropylene glycol] |  |  | 3000
